From patent US9586961B2, “Homopiperazine derivatives as protein tyrosine kinase inhibitors and pharmaceutical use thereof” (LEO PHARMA A/S, priority 2010, dated 2017)

Legend:
Type in all cases: biochemical
[1] = biological target: T1, JAK1 (Homo sapiens, UniProt P23458); test: JAK1 kinase assay (HTRF, inhibition of phosphorylation of a synthetic peptide); details: catalytic domain aa 850-1154, GST-tag; 7 μM ATP (Km); read-out: JAK1 kinase inhibitory activity (EC50)
T1 construct: JAK1 (aa 850-1154) and TYK2 (aa 871-1187) are expressed with an N-terminally fused GST-tag; GST (N); purchased Carna Biosciences, Inc; host or cells: baculovirus expression system
T1 sequence (P23458 850-1154): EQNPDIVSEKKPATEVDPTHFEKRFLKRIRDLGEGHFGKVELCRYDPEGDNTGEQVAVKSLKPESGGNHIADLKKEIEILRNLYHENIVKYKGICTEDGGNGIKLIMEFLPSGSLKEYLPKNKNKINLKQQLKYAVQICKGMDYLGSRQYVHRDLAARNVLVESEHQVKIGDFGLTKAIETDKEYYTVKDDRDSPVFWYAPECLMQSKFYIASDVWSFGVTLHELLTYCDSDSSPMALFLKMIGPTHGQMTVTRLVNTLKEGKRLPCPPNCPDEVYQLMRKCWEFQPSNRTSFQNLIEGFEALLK
In short: (§1)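 HTRF detection (streptavidin-XL665, cryptate anti-phospho antibody, overnight in the dark) after EDTA stop of a 20-30 min RT reaction on 1 μM TK substrate-biotin. Km-level ATP per kinase: 7 μM for JAK1 and 13 μM for TYK2, both N-terminal GST, with 50 nM SEB; 4 μM for JAK2 and 2 μM for JAK3, both His-tagged. Catalytic domains only; DMSO 0.75%.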

[2] = biological target: T2, JAK2 (Homo sapiens, UniProt O60674); test: JAK2 kinase assay (HTRF, inhibition of phosphorylation of a synthetic peptide); details: catalytic domain, His-tag; 4 μM ATP (Km); read-out: JAK2 kinase inhibitory activity (EC50)
T2 construct: All four purified enzymes contain only the catalytic domain; His (N); purchased Carna Biosciences, Inc; host or cells: baculovirus expression system
T2 sequence (O60674 849-1124 limits assumed): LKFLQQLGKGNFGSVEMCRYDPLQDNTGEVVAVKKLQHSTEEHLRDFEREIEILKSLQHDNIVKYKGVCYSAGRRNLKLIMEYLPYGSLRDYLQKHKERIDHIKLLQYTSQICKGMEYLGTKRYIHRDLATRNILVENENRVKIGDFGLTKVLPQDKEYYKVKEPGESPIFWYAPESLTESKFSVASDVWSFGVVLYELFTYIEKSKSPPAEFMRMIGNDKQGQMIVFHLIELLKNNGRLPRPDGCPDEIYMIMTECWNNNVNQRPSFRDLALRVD
In short: as §1

[3] = biological target: T3, JAK3 (Homo sapiens, UniProt P52333); test: JAK3 kinase assay (HTRF, inhibition of phosphorylation of a synthetic peptide); details: catalytic domain, His-tag; 2 μM ATP (Km); read-out: JAK3 kinase inhibitory activity (EC50)
T3 construct: All four purified enzymes contain only the catalytic domain; His (N); purchased Carna Biosciences, Inc; host or cells: baculovirus expression system
T3 sequence (P52333 822-1111 limits assumed): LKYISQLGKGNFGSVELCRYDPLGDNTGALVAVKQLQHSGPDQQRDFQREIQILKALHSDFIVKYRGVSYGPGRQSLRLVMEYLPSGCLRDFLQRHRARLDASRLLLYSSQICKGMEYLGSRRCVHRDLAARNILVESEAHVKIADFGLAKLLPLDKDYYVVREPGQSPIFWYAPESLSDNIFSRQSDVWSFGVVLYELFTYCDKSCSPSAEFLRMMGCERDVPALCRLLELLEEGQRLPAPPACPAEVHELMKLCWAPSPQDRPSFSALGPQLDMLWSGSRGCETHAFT
In short: as §1

EC50 [1]	EC50 [2]	EC50 [3]	SMILES
0.1 to 1 µM	< 0.1 µM	0.1 to 1 µM	O=C(c1ccccc1F)N1CCCN(c2ncnc3[nH]ccc23)CC12CC2 [Example 112, (2-fluorophenyl)-[5-(7H-pyrrolo[2,3-d]pyrimidin-4-yl)-5,9-diazaspiro[2.6]nonan-9-yl]methanone]
0.1 to 1 µM	< 0.1 µM	0.1 to 1 µM	O=C(Cc1ccccc1Cl)N1CCN(c2ncnc3[nH]ccc23)CC2(CC2)C1 [Example 173, 2-(2-chlorophenyl)-1-[5-(7H-pyrrolo[2,3-d]pyrimidin-4-yl)-5,8-diazaspiro[2.6]nonan-8-yl]ethanone]
0.1 to 1 µM	< 0.1 µM	0.1 to 1 µM	Cc1sncc1C(=O)N1CCCN(c2ncnc3[nH]ccc23)CC12CC2 [Example 230, (5-methylisothiazol-4-yl)-[5-(7H-pyrrolo[2,3-d]pyrimidin-4-yl)-5,9-diazaspiro[2.6]nonan-9-yl]methanone]
0.1 to 1 µM	0.1 to 1 µM	0.1 to 1 µM	O=C(c1ccc(O)nc1)N1CCN(c2ncnc3[nH]ccc23)CC2(CC2)C1 [Example 131, (6-hydroxy-3-pyridyl)-[5-(7H-pyrrolo[2,3-d]pyrimidin-4-yl)-5,8-diazaspiro[2.6]nonan-8-yl]methanone]
0.1 to 1 µM	0.1 to 1 µM	0.1 to 1 µM	CC(C)(C(=O)N1CCN(c2ncnc3[nH]ccc23)CC2(CC2)C1)c1ccc(Cl)cc1 [Example 269, 2-(4-chlorophenyl)-2-methyl-1-[5-(7H-pyrrolo[2,3-d]pyrimidin-4-yl)-5,8-diazaspiro[2.6]nonan-8-yl]propan-1-one]
0.1 to 1 µM	0.1 to 1 µM	> 1 µM	Cc1ccncc1C(=O)N1CCCN(c2ncnc3[nH]ccc23)CC12CC2 [Example 151, (4-methyl-3-pyridyl)-[5-(7H-pyrrolo[2,3-d]pyrimidin-4-yl)-5,9-diazaspiro[2.6]nonan-9-yl]methanone]
0.1 to 1 µM	0.1 to 1 µM	0.1 to 1 µM	Cc1cnc(C(=O)N2CCN(c3ncnc4[nH]ccc34)CC3(CC3)C2)s1 [Example 241, (5-methylthiazol-2-yl)-[5-(7H-pyrrolo[2,3-d]pyrimidin-4-yl)-5,8-diazaspiro[2.6]nonan-8-yl]methanone]
0.1 to 1 µM	0.1 to 1 µM	> 1 µM	Cn1cc(CC(=O)N2CCN(c3ncnc4[nH]ccc34)CC3(CC3)C2)cn1 [Example 253, 2-(1-methylpyrazol-4-yl)-1-[5-(7H-pyrrolo[2,3-d]pyrimidin-4-yl)-5,8-diazaspiro[2.6]nonan-8-yl]ethanone]
> 1 µM	0.1 to 1 µM	> 1 µM	Cc1ccccc1C(=O)N1CCN(c2ncnc3[nH]ccc23)CC2(CC2)C1 [Example 109, o-tolyl-[5-(7H-pyrrolo[2,3-d]pyrimidin-4-yl)-5,8-diazaspiro[2.6]nonan-8-yl]methanone]
0.1 to 1 µM	0.1 to 1 µM	> 1 µM	Cc1cc(C(=O)N2CCCN(c3ncnc4[nH]ccc34)CC23CC3)ccn1 [Example 172, (2-methyl-4-pyridyl)-[5-(7H-pyrrolo[2,3-d]pyrimidin-4-yl)-5,9-diazaspiro[2.6]nonan-9-yl]methanone]
0.1 to 1 µM	0.1 to 1 µM	> 1 µM	O=C(c1cccc(O)n1)N1CCCN(c2ncnc3[nH]ccc23)CC12CC2 [Example 164, (6-hydroxy-2-pyridyl)-[5-(7H-pyrrolo[2,3-d]pyrimidin-4-yl)-5,9-diazaspiro[2.6]nonan-9-yl]methanone]
> 1 µM	0.1 to 1 µM	> 1 µM	N#Cc1ccccc1C(=O)N1CCCN(c2ncnc3[nH]ccc23)CC12CC2 [Example 162, 2-[5-(7H-pyrrolo[2,3-d]pyrimidin-4-yl)-5,9-diazaspiro[2.6]nonane-9-carbonyl]benzonitrile]
0.1 to 1 µM	0.1 to 1 µM	0.1 to 1 µM	O=C(c1cn[nH]c1)N1CCN(c2ncnc3[nH]ccc23)CC2(CC2)C1 [Example 157, 1H-pyrazol-4-yl-[5-(7H-pyrrolo[2,3-d]pyrimidin-4-yl)-5,8-diazaspiro[2.6]nonan-8-yl]methanone]

Further lines, the compound ahead of its results:

SMILES	EC50 [1]	EC50 [2]	EC50 [3]
Cc1cnc(C(=O)N2CCN(c3ncnc4[nH]ccc34)CC3(CC3)C2)cn1 [Example 196, (5-methylpyrazin-2-yl)-[5-(7H-pyrrolo[2,3-d]pyrimidin-4-yl)-5,8-diazaspiro[2.6]nonan-8-yl]methanone]	> 1 µM	> 1 µM	> 1 µM
O=C(c1ccncn1)N1CCCN(c2ncnc3[nH]ccc23)CC12CC2 [Example 166, pyrimidin-4-yl-[5-(7H-pyrrolo[2,3-d]pyrimidin-4-yl)-5,9-diazaspiro[2.6]nonan-9-yl]methanone]	< 0.1 µM	< 0.1 µM	0.1 to 1 µM
O=C(c1ccnc(O)c1)N1CCN(c2ncnc3[nH]ccc23)CC2(CC2)C1 [Example 190, (2-hydroxy-4-pyridyl)-[5-(7H-pyrrolo[2,3-d]pyrimidin-4-yl)-5,8-diazaspiro[2.6]nonan-8-yl]methanone]	0.1 to 1 µM	0.1 to 1 µM	> 1 µM
Cc1oncc1C(=O)N1CCN(c2ncnc3[nH]ccc23)CC2(CC2)C1 [Example 108, (5-methylisoxazol-4-yl)-[5-(7H-pyrrolo[2,3-d]pyrimidin-4-yl)-5,8-diazaspiro[2.6]nonan-8-yl]methanone]	0.1 to 1 µM	0.1 to 1 µM	0.1 to 1 µM
N#Cc1cccc(OCC(=O)N2CCN(c3ncnc4[nH]ccc34)CC3(CC3)C2)c1 [Example 118, 3-[2-oxo-2-[5-(7H-pyrrolo[2,3-d]pyrimidin-4-yl)-5,8-diazaspiro[2.6]nonan-8-yl]ethoxy]benzonitrile]	0.1 to 1 µM	< 0.1 µM	0.1 to 1 µM
O=C(c1ccncc1)N1CCCN(c2ncnc3[nH]ccc23)CC12CC2 [Example 130, 4-pyridyl-[5-(7H-pyrrolo[2,3-d]pyrimidin-4-yl)-5,9-diazaspiro[2.6]nonan-9-yl]methanone]	0.1 to 1 µM	0.1 to 1 µM	> 1 µM
Cc1nocc1C(=O)N1CCCN(c2ncnc3[nH]ccc23)CC12CC2 [Example 245, (3-methylisoxazol-4-yl)-[5-(7H-pyrrolo[2,3-d]pyrimidin-4-yl)-5,9-diazaspiro[2.6]nonan-9-yl]methanone]	> 1 µM	0.1 to 1 µM	> 1 µM
O=C(c1nc[nH]n1)N1CCCN(c2ncnc3[nH]ccc23)CC12CC2 [Example 228, [5-(7H-pyrrolo[2,3-d]pyrimidin-4-yl)-5,9-diazaspiro[2.6]nonan-9-yl]-(1H-1,2,4-triazol-3-yl)methanone]	0.1 to 1 µM	0.1 to 1 µM	> 1 µM
Cn1cncc1C(=O)N1CCCN(c2ncnc3[nH]ccc23)CC12CC2 [Example 145, (3-methylimidazol-4-yl)-[5-(7H-pyrrolo[2,3-d]pyrimidin-4-yl)-5,9-diazaspiro[2.6]nonan-9-yl]methanone]	0.1 to 1 µM	0.1 to 1 µM	> 1 µM
Cc1cc(C(=O)N2CCCN(c3ncnc4[nH]ccc34)CC23CC3)n[nH]1 [Example 149, (5-methyl-1H-pyrazol-3-yl)-[5-(7H-pyrrolo[2,3-d]pyrimidin-4-yl)-5,9-diazaspiro[2.6]nonan-9-yl]methanone]	0.1 to 1 µM	0.1 to 1 µM	> 1 µM
O=C(c1cccc(Cl)c1)N1CCN(c2ncnc3[nH]ccc23)CC2(CC2)C1 [Example 186, (3-chlorophenyl)-[5-(7H-pyrrolo[2,3-d]pyrimidin-4-yl)-5,8-diazaspiro[2.6]nonan-8-yl]methanone]	0.1 to 1 µM	0.1 to 1 µM	> 1 µM
O=C(c1ccns1)N1CCN(c2ncnc3[nH]ccc23)CC2(CC2)C1 [Example 235, isothiazol-5-yl-[5-(7H-pyrrolo[2,3-d]pyrimidin-4-yl)-5,8-diazaspiro[2.6]nonan-8-yl]methanone]	0.1 to 1 µM	0.1 to 1 µM	0.1 to 1 µM
N#Cc1ccccc1CC(=O)N1CCN(c2ncnc3[nH]ccc23)CC2(CC2)C1 [Example 272, 2-[2-oxo-2-[5-(7H-pyrrolo[2,3-d]pyrimidin-4-yl)-5,8-diazaspiro[2.6]nonan-8-yl]ethyl]benzonitrile]	0.1 to 1 µM	< 0.1 µM	0.1 to 1 µM
O=C(c1ccsn1)N1CCN(c2ncnc3[nH]ccc23)CC2(CC2)C1 [Example 200, isothiazol-3-yl-[5-(7H-pyrrolo[2,3-d]pyrimidin-4-yl)-5,8-diazaspiro[2.6]nonan-8-yl]methanone]	0.1 to 1 µM	0.1 to 1 µM	0.1 to 1 µM
CC(C)N(C)C(=O)N1CCN(c2ncnc3[nH]ccc23)CC2(CC2)C1 [Example 223, N-isopropyl-N-methyl-5-(7H-pyrrolo[2,3-d]pyrimidin-4-yl)-5,8-diazaspiro[2.6]nonane-8-carboxamide]	0.1 to 1 µM	0.1 to 1 µM	0.1 to 1 µM
O=C(c1ccc(Cl)cc1)N1CCN(c2ncnc3[nH]ccc23)CC2(CC2)C1 [Example 176, (4-chlorophenyl)-[5-(7H-pyrrolo[2,3-d]pyrimidin-4-yl)-5,8-diazaspiro[2.6]nonan-8-yl]methanone]	0.1 to 1 µM	< 0.1 µM	0.1 to 1 µM
